One compound from ChEMBL document CHEMBL2150931, “Design, synthesis, and biological activity of a novel series of human sirtuin-2-selective inhibitors” (J Med Chem, 2012) can be followed below.

Assay [1] has as its target T1, NAD-dependent protein deacetylase sirtuin-3, mitochondrial (Homo sapiens, UniProt Q9NTG7).
T1 sequence (Q9NTG7 whole entry): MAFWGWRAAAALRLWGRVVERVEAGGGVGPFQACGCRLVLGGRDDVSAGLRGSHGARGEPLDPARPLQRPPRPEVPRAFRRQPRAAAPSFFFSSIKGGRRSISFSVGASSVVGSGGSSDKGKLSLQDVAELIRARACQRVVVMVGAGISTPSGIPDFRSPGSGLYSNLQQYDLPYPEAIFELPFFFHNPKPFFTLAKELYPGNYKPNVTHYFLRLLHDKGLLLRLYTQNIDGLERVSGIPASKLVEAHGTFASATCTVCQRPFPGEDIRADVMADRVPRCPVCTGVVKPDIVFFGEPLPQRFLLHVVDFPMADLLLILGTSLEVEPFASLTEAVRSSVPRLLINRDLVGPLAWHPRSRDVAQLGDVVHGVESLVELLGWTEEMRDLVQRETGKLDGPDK
The experiment in a line: Inhibition of human recombinant SIRT3 using Fluor de Lys-SIRT as substrate incubated for 60 mins prior to substrate addition measured after 60 mins by fluorimetric analysis.

Assay [2] deals with Histone deacetylase 1 (Homo sapiens, UniProt Q13547). The experiment in a line: Inhibition of HDAC1.
Assay [3] deals with Histone deacetylase 5 (Homo sapiens, UniProt Q9UQL6). The experiment in a line: Inhibition of HDAC5.
For assay [4], the target named is T2, Histone deacetylase 7 (Homo sapiens, UniProt Q8WUI4).
T2 sequence (Q8WUI4 whole entry): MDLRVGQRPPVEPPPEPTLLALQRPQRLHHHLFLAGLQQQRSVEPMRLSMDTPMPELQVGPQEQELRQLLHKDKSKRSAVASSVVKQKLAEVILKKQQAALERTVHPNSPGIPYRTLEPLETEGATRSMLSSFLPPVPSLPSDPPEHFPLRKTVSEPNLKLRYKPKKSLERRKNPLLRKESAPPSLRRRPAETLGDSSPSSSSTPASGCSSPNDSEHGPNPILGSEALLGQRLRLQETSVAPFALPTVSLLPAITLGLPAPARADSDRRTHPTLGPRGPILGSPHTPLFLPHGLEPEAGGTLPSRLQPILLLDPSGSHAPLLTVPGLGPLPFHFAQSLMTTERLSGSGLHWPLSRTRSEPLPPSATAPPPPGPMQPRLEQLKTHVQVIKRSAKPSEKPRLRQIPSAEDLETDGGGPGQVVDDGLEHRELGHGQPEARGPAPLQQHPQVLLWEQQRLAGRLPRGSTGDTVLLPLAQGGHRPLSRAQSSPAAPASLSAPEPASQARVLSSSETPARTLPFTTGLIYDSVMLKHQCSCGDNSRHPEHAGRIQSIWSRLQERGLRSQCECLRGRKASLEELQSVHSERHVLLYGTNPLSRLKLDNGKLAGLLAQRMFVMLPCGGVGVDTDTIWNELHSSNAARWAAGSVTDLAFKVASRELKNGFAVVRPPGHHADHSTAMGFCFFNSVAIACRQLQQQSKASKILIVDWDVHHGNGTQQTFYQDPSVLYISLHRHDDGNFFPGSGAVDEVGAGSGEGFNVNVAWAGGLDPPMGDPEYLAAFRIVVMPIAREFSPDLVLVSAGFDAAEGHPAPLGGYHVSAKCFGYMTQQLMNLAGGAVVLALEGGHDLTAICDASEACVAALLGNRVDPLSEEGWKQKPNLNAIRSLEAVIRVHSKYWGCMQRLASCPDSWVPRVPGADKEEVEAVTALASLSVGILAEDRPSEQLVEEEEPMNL
The assay is described as follows: Inhibition of HDAC7.

Assay [5] has as its target Histone deacetylase 9 (Homo sapiens, UniProt Q9UKV0). The experiment in a line: Inhibition of HDAC9.
Assay [6] concerns the target T3, Histone deacetylase 11 (Homo sapiens, UniProt Q96DB2).
T3 sequence (Q96DB2 whole entry): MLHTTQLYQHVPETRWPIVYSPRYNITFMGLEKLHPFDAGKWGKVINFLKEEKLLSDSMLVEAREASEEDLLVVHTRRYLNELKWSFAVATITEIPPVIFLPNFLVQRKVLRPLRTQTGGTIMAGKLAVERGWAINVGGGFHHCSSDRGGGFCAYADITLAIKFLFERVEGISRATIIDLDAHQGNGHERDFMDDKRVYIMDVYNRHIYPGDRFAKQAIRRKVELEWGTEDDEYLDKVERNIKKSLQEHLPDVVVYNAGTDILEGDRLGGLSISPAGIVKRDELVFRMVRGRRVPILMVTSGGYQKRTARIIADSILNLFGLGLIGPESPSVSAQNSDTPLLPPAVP
The assay is described as follows: Inhibition of HDAC11.

Assay [7] deals with Cytochrome P450 2D6 (Homo sapiens, UniProt P10635). The experiment in a line: Inhibition of CYP2D6. The format is ADME.

Some results are limits rather than exact numbers.

Sequence of Histone deacetylase 5 (Q9UQL6 whole entry): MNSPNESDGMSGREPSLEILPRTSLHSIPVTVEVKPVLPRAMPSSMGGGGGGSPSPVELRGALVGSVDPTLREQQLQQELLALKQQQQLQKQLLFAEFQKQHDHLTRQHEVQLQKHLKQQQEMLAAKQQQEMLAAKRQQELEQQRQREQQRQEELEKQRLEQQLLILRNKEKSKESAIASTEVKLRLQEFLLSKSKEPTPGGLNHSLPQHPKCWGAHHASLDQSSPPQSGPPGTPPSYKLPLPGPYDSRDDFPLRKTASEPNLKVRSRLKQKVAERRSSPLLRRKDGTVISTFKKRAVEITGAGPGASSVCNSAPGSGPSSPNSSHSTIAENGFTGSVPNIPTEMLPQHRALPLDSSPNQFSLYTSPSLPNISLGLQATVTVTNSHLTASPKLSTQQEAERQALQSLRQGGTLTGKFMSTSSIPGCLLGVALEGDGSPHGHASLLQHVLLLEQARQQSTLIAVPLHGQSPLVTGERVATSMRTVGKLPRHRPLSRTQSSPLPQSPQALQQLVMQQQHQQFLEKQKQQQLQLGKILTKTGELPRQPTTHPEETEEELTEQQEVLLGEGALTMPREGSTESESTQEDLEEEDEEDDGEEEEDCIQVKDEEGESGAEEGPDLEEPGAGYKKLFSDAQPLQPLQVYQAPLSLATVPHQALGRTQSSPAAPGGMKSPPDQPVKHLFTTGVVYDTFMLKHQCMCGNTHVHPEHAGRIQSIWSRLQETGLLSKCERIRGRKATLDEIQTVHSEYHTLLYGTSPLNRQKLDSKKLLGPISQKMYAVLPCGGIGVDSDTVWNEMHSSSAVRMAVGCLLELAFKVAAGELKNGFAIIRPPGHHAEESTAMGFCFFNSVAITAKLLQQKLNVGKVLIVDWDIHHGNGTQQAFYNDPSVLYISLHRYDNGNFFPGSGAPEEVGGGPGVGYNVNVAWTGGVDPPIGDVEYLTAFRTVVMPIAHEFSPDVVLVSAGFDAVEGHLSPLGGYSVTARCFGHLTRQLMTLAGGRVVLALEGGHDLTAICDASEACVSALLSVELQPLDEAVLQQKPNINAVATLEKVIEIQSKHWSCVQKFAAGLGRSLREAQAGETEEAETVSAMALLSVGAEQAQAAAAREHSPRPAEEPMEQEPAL
Sequence of Cytochrome P450 2D6 (P10635 whole entry): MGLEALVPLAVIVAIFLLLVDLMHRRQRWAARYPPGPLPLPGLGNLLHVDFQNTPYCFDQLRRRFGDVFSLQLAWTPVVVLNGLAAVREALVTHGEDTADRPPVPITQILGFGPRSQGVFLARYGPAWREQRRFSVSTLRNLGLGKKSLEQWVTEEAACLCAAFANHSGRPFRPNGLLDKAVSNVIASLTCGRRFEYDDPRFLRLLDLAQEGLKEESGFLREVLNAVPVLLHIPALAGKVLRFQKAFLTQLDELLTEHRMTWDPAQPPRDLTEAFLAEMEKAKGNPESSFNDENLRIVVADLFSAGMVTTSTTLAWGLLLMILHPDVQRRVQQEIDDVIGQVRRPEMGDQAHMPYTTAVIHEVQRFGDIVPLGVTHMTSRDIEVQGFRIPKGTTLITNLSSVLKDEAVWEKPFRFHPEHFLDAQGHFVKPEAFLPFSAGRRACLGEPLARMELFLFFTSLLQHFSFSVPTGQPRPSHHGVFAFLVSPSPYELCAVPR
Sequence of Histone deacetylase 1 (Q13547 whole entry): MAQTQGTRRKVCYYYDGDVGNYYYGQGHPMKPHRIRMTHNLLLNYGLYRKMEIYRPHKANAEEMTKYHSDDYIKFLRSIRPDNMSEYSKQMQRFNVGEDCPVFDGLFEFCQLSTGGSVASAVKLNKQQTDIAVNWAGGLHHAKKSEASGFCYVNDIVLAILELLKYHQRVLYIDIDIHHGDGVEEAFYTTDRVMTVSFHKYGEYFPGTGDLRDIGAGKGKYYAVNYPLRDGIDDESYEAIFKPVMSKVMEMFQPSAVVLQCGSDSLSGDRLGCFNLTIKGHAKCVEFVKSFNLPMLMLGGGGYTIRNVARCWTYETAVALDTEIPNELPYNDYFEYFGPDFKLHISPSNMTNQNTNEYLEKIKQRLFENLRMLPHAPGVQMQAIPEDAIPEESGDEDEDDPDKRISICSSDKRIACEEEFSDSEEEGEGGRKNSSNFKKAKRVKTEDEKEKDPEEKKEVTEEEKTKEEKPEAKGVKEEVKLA
Sequence of Histone deacetylase 9 (Q9UKV0 whole entry): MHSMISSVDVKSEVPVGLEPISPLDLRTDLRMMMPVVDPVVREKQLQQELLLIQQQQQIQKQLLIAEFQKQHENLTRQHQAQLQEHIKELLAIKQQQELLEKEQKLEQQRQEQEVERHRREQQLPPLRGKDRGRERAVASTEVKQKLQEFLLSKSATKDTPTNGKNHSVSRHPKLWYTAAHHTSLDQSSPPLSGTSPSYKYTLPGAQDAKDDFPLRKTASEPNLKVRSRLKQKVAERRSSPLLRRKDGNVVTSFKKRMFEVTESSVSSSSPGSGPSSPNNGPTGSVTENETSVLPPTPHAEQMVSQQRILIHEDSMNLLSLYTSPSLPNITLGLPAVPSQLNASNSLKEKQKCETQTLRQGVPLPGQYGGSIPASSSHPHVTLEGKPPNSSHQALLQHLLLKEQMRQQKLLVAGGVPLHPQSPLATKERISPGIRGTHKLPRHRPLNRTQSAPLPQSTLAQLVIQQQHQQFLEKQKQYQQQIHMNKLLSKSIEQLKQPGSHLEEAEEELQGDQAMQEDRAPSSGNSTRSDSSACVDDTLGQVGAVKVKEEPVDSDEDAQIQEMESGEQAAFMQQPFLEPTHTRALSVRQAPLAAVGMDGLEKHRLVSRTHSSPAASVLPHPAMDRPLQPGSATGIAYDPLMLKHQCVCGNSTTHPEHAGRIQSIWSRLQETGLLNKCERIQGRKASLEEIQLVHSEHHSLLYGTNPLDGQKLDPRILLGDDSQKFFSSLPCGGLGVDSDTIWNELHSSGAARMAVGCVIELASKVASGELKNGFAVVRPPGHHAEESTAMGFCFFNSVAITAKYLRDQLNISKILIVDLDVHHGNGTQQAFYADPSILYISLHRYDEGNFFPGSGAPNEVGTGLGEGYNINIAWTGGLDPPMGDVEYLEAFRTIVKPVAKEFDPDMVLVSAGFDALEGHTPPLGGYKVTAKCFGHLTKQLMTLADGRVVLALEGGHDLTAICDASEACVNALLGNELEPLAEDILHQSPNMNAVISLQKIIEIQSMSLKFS

For the compound `NC(=O)c1ccccc1Nc1cccc(OCCc2ccccc2)c1`, the IC50 in assay [1] is > 300 µM; in assay [2], > 30 µM; in assay [3], > 30 µM; in assay [4] it was > 30 µM; in assay [5] it was > 30 µM; in assay [6], > 30 µM. The IC50 in assay [7] was > 10 µM.
